According to publication PMC9399405, “CD8 T cell function and cross-reactivity explored by stepwise increased peptide-HLA versus TCR affinity” (Frontiers in Immunology, 2022):

Test system: HLA-A2
Assay: Blue peptide (Cy5-labeled HBVc) kinetic and isotherm determination
Type: binding, human
Description: In short, for kon measurements on T2 (HLA-A2^pos) and C1R-A3 (HLA-A2^neg) cells, baseline Cy5 cell auto-fluorescence was recorded for 30s with an LSRII instrument. Titrated amounts of Cy5-labeled HBVc blue peptide (from 1 pM to 1 uM final concentration) were then added to the tube and association of the blue peptide to HLA-A2 was recorded for 5 minutes. For koff dissociation assays, 2x10^6 HLA-A2^pos (T2) and HLA-A2^neg (C1R-A3) cells were stained with 1 μM blue peptide and incubated for 1h in the dark. After washing, baseline Cy5 staining was recorded for 30s, before adding excess of FACS buffer and recording fluorescence intensity (gMFI) for 1h under temperature control. Additionally, isotherm titration experiments were performed to validate the value of the blue peptide dissociation equilibrium constant KD. Cells were stained with titrated amounts of the blue peptide (from 1 pM to 1 uM) for 1h at 4°C or 37°C. After washing, Cy5 gMFI was recorded on an LSRII instrument to determine concentration-associated maximal staining at equilibrium conditions (n = 5). All kinetic and isotherm analyses were done with the corresponding best fit equations using Prism software (GraphPad, v.9.1.1) and correction of non-specific staining values found on control HLA-A2^neg cells (nonlinear regression for kon = association kinetics - one conc. of ligand, for koff = dissociation/one phase exponential decay and for KD = one site - total and nonspecific binding).

[1] = HLA-A2pos and HLA-A2neg cells in parallel, flow cytometry

FLPSDC*-(Cy5)-FPSV [blue peptide]
peptide:HLA association kon [1]: 23000 M⁻¹ s⁻¹ | peptide:HLA dissociation koff [1]: 0.0012 s⁻¹ | Kd (T2 (HLA-A2pos) vs C1R-A3 (HLA-A2neg) cells, isotherm titration 1 pM to 1 uM, 1h, n = 5, read-out: equilibrium dissociation constant KD for HLA-A2): 0.0526 µM
